Patent publication US10065967B2, “Compounds that are ERK inhibitors” (Merck Sharp & Dohme Corp., priority 2013, dated 2018)

The molecules below were run against Active Mouse ERK2 (mERK2) (Mus musculus (Mouse), UniProt P63085) (assay: Active Mouse ERK2 (mERK2) Activity Assay (IMAP-FP)). Settings: phosphorylated active mERK2 0.19 nM, 30 uM ATP, 10 point titration, read-out: ERK 2 MAPK1 Mouse IC50.
Assay type: biochemical
Description: Active Mouse ERK2 (mERK2) Activity Assay:
Activated ERK2 activity was determined in an IMAP-FP assay (Molecular Devices). Using this assay format, the potency (IC50) of each compound was determined from a 10 point (1:3 serial dilution, 3 μM starting compound concentration) titration curve using the following outlined procedure. To each well of a black Corning 384-well plate (Corning Catalog #3575), 7.5 nL of compound (3333 fold dilution in final assay volume of 25 μL) was dispensed, followed by the addition of 15 μL of kinase buffer (tween containing kinase buffer, Molecular Devices) containing […] (0.316 nM) of phosphorylated active mERK2 enzyme. Following a 15 minute compound & enzyme incubation, each reaction was initiated by the addition of 10 μL kinase buffer containing 2.45 μM ERK2 IMAP substrate peptides (2.25 μM-unlabeled peptide and 200 nM-labeled peptide, and 75 μM ATP. The final reaction in each well of 25 μL consists of 0.19 nM mERK2, 900 nM unlabeled peptide, 80 nM labeled-peptide, and 30 uM ATP. Phosphorylation reactions were allowed to proceed for 45 minutes and were immediately quenched by the addition of 60 μL IMAP detection beads (1:1000 dilutions) in IMAP binding buffer (Molecular Devices) with 24 mM NaCl. Plates were read on EnVision reader after 60 minutes binding equilibration using Fluorescence Polarization protocol (Perkin Elmer).

Sequence of Active Mouse ERK2 (mERK2) (P63085 whole entry): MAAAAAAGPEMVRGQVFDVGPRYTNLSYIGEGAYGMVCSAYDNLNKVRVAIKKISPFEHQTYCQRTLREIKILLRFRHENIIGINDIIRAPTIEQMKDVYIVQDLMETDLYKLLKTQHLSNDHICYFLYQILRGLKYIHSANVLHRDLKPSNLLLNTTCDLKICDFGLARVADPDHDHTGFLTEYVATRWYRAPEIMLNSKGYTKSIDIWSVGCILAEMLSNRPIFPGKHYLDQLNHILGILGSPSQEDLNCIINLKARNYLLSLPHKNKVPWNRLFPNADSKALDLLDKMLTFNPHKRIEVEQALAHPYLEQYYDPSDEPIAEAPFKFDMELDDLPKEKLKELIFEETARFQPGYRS

| IC50 [nM] | Structure (SMILES) |
| --- | --- |
| 0.4 | Cc1cc(-c2n[nH]c3cc4[nH]c(=O)ccc4cc23)ccn1 [Example 1, 3-(2-methylpyridin-4-yl)-1,8-dihydro-7H-pyrazolo[4,3-g]quinolin-7-one] |
| 0.2 | Cc1cc(-c2n[nH]c3cc4[nH]c(=O)c(Cc5ccccc5)cc4cc23)ccn1 [Example 3, 6-benzyl-3-(2-methylpyridin-4-yl)-1,8-dihydro-7H-pyrazolo[4,3-g]quinolin-7-one] |
| 0.2 | Cc1cc(-c2n[nH]c3cc4[nH]c(=O)c(Br)cc4cc23)ccn1 [Example 2, 6-bromo-3-(2-methylpyridin-4-yl)-1,8-dihydro-7H-pyrazolo[4,3-g]quinolin-7-one] |
